Reference: US20180030500A1, “ENRICHMENT AND SELECTIVE CULTURE OF MYCOBACTERIA” (priority 2015, published 2018)
Read-outs that look alike come from different tables or passages of the source.

Experiments:
Mycobacteria = conditions: 20 strains, 7 days
[1] = system: Aspergillus terreus (Anon); test: Sensitivity to C-390 in medium W; format: cell-based; parameters: key: NG: no growth; Tr: traces
Procedure: (§1) An evaluation of the sensitivity to C-390 of various microorganisms capable of infecting the airways was carried out. This evaluation was carried out using medium W of example 4, containing a variable concentration of C-390. Table 10 below collates the observations collected with regard to the intensity of growth of the strains tested as a function of the C-390 concentration of the medium. The abbreviations NG (“no growth”) and Tr (“traces”) signify that no growth was observed or only a few not very significant traces.

[2] = system: Burkholderia stabilis (LMG18870); test: Sensitivity to C-390 in medium W; format: cell-based; parameters: key: NG: no growth; Tr: traces
Procedure: as §1

Fusarium oxysporum (ENV) = test: Sensitivity to C-390 in medium W; format: cell-based; parameters: key: NG: no growth; Tr: traces
Procedure: as §1

[3] = system: Burkholderia cenocepacia (LMG 18832); test: Sensitivity to C-390 in medium W; format: cell-based; parameters: key: NG: no growth; Tr: traces
Procedure: as §1

[4] = system: Burkholderia multivorans (LMG 18824); test: Sensitivity to C-390 in medium W; format: cell-based; parameters: key: NG: no growth; Tr: traces
Procedure: as §1

[5] = system: Burkholderia contaminans (40007X); test: Sensitivity to C-390 in medium W; format: cell-based; parameters: key: NG: no growth; Tr: traces
Procedure: as §1

[6] = system: Burkholderia dolosa (LMG21820); test: Sensitivity to C-390 in medium W; format: cell-based; parameters: key: NG: no growth; Tr: traces
Procedure: as §1

[7] = system: Burkholderia ambifaria (LMG 19467); test: Sensitivity to C-390 in medium W; format: cell-based; parameters: key: NG: no growth; Tr: traces
Procedure: as §1

[8] = system: Burkholderia cenocepacia (LMG 18830); test: Sensitivity to C-390 in medium W; format: cell-based; parameters: key: NG: no growth; Tr: traces; conditions: C-390 32 mg/l in medium W
Procedure: as §1

[9] = system: Burkholderia cenocepacia (640328); test: Sensitivity to C-390 in medium W; format: cell-based; parameters: key: NG: no growth; Tr: traces
Procedure: as §1

[10] = system: Geosmithia argillacea (Anon); test: Sensitivity to C-390 in medium W; format: cell-based; parameters: key: NG: no growth; Tr: traces
Procedure: as §1

[11] = system: Burkholderia cepacia (LMG 1222); test: Sensitivity to C-390 in medium W; format: cell-based; parameters: key: NG: no growth; Tr: traces
Procedure: as §1

[12] = system: Burkholderia pyrrocinia (LMG 21824); test: Sensitivity to C-390 in medium W; format: cell-based; parameters: key: NG: no growth; Tr: traces
Procedure: as §1

[13] = system: Burkholderia vietnamiensis (744978N); test: Sensitivity to C-390 in medium W; format: cell-based; parameters: key: NG: no growth; Tr: traces
Procedure: as §1

[14] = system: Burkholderia multivorans (672832Y); test: Sensitivity to C-390 in medium W; format: cell-based; parameters: key: NG: no growth; Tr: traces
Procedure: as §1

[15] = system: Burkholderia multivorans (645914C); test: Sensitivity to C-390 in medium W; format: cell-based; parameters: key: NG: no growth; Tr: traces
Procedure: as §1

[16] = system: Burkholderia stabilis (716237); test: Sensitivity to C-390 in medium W; format: cell-based; parameters: key: NG: no growth; Tr: traces
Procedure: as §1

Enterobacteria = conditions: 7 strains, 7 days
[17] = selective agent 32 mg/l in medium L
[18] = selective agent 64 mg/l in medium L
[19] = selective agent 128 mg/l in medium L

CCN(CC)c1ccc(C2(Cl)c3ccccc3N(c3ccccc3)c3ccccc32)cc1 [Medium C-390, 9-chloro-9-(4′-diethylamino)phenyl-9,10-dihydro-10-phenylacridine]
Number of strains having shown growth (Mycobacteria; [17]): 19
Percentage of strains having shown growth (Mycobacteria; [17]): (95%)
Number of strains having shown growth (Mycobacteria; [18]): 19
Percentage of strains having shown growth (Mycobacteria; [18]): (95%)
Number of strains having shown growth (Mycobacteria; [19]): 19
Percentage of strains having shown growth (Mycobacteria; [19]): (95%)
intensity of growth ([1]; C-390 1 mg/l in medium W): NG
intensity of growth ([1]; C-390 2 mg/l in medium W): NG
intensity of growth ([1]; C-390 4 mg/l in medium W): NG
intensity of growth ([1]; C-390 8 mg/l in medium W): NG
intensity of growth ([1]; C-390 16 mg/l in medium W): NG
intensity of growth ([1]; C-390 32 mg/l in medium W): NG
intensity of growth ([2]; C-390 2 mg/l in medium W): NG
intensity of growth ([2]; C-390 4 mg/l in medium W): NG
intensity of growth ([2]; C-390 8 mg/l in medium W): NG
intensity of growth ([2]; C-390 16 mg/l in medium W): NG
intensity of growth ([2]; C-390 32 mg/l in medium W): NG
intensity of growth (Fusarium oxysporum (ENV); C-390 8 mg/l in medium W): NG
intensity of growth (Fusarium oxysporum (ENV); C-390 16 mg/l in medium W): NG
intensity of growth (Fusarium oxysporum (ENV); C-390 32 mg/l in medium W): NG
intensity of growth ([3]; C-390 8 mg/l in medium W): NG
intensity of growth ([3]; C-390 16 mg/l in medium W): NG
intensity of growth ([3]; C-390 32 mg/l in medium W): NG
intensity of growth ([4]; C-390 4 mg/l in medium W): NG
intensity of growth ([4]; C-390 8 mg/l in medium W): NG
intensity of growth ([4]; C-390 16 mg/l in medium W): NG
intensity of growth ([4]; C-390 32 mg/l in medium W): NG
intensity of growth ([5]; C-390 2 mg/l in medium W): Tr
intensity of growth ([5]; C-390 4 mg/l in medium W): NG
intensity of growth ([5]; C-390 8 mg/l in medium W): NG
intensity of growth ([5]; C-390 16 mg/l in medium W): NG
intensity of growth ([5]; C-390 32 mg/l in medium W): NG
intensity of growth ([6]; C-390 1 mg/l in medium W): Tr
intensity of growth ([6]; C-390 2 mg/l in medium W): NG
intensity of growth ([6]; C-390 4 mg/l in medium W): NG
intensity of growth ([6]; C-390 8 mg/l in medium W): NG
intensity of growth ([6]; C-390 16 mg/l in medium W): NG
intensity of growth ([6]; C-390 32 mg/l in medium W): NG
intensity of growth ([7]; C-390 0.5 mg/l in medium W): NG
intensity of growth ([7]; C-390 1 mg/l in medium W): NG
intensity of growth ([7]; C-390 2 mg/l in medium W): NG
intensity of growth ([7]; C-390 4 mg/l in medium W): NG
intensity of growth ([7]; C-390 8 mg/l in medium W): NG
intensity of growth ([7]; C-390 16 mg/l in medium W): NG
intensity of growth ([7]; C-390 32 mg/l in medium W): NG
intensity of growth [8]: NG
intensity of growth ([9]; C-390 16 mg/l in medium W): NG
intensity of growth ([9]; C-390 32 mg/l in medium W): NG
intensity of growth ([10]; C-390 0.5 mg/l in medium W): NG
intensity of growth ([10]; C-390 1 mg/l in medium W): NG
intensity of growth ([10]; C-390 2 mg/l in medium W): NG
intensity of growth ([10]; C-390 4 mg/l in medium W): NG
intensity of growth ([10]; C-390 8 mg/l in medium W): NG
intensity of growth ([10]; C-390 16 mg/l in medium W): NG
intensity of growth ([10]; C-390 32 mg/l in medium W): NG
intensity of growth ([11]; C-390 2 mg/l in medium W): Tr
intensity of growth ([11]; C-390 4 mg/l in medium W): NG
intensity of growth ([11]; C-390 8 mg/l in medium W): NG
intensity of growth ([11]; C-390 16 mg/l in medium W): NG
intensity of growth ([11]; C-390 32 mg/l in medium W): NG
intensity of growth ([12]; C-390 4 mg/l in medium W): NG
intensity of growth ([12]; C-390 8 mg/l in medium W): NG
intensity of growth ([12]; C-390 16 mg/l in medium W): NG
intensity of growth ([12]; C-390 32 mg/l in medium W): NG
intensity of growth ([13]; C-390 1 mg/l in medium W): Tr
intensity of growth ([13]; C-390 2 mg/l in medium W): NG
intensity of growth ([13]; C-390 4 mg/l in medium W): NG
intensity of growth ([13]; C-390 8 mg/l in medium W): NG
intensity of growth ([13]; C-390 16 mg/l in medium W): NG
intensity of growth ([13]; C-390 32 mg/l in medium W): NG
intensity of growth ([14]; C-390 4 mg/l in medium W): Tr
intensity of growth ([14]; C-390 8 mg/l in medium W): NG
intensity of growth ([14]; C-390 16 mg/l in medium W): NG
intensity of growth ([14]; C-390 32 mg/l in medium W): NG
intensity of growth ([15]; C-390 2 mg/l in medium W): NG
intensity of growth ([15]; C-390 4 mg/l in medium W): NG
intensity of growth ([15]; C-390 8 mg/l in medium W): NG
intensity of growth ([15]; C-390 16 mg/l in medium W): NG
intensity of growth ([15]; C-390 32 mg/l in medium W): NG
intensity of growth ([16]; C-390 4 mg/l in medium W): Tr
intensity of growth ([16]; C-390 8 mg/l in medium W): Tr
intensity of growth ([16]; C-390 16 mg/l in medium W): NG
intensity of growth ([16]; C-390 32 mg/l in medium W): NG
Number of strains having shown growth (Enterobacteria; [17]): 0
Number of strains having shown growth (Enterobacteria; [18]): 0
Number of strains having shown growth (Enterobacteria; [19]): 0
